The values that follow come from patent US9346834B2, “Boron-containing small molecules as antiprotozoal agents” (Anacor Pharmaceuticals, Inc., priority 2009, dated 2016).

In the experiment the test system is Leishmania infantum MHOM/MA(BE)/67. In words: Leishmania infantum macrophage screening assay, primary screen. The experiment is classed as cell-based. As to conditions: 120 h, amastigotes in primary peritoneal mouse macrophages, 5 days incubation, % reduction in parasite burden, reference drugs, read-out: IC50 (50% inhibitory concentration). The method, then: Parasite and Cell Cultures. Two Leishmania species (L. infantum MHOM/MA(BE)/67 and L. donovani MHOM/ET/67/L82) were used. The strains were maintained in the Golden Hamster (Mesocricetus auratus). Amastigotes were collected from the spleen of an infected donor hamster using three centrifugation purification steps (300 rpm, keeping the supernatant, 2200 rpm, keeping the supernatants and 3500 rpm, keeping the pellet) and spleen parasite burdens were assessed using the Stauber technique (Stauber L A., Exp Parasitol. 18: 1-11 (1966)). Primary peritoneal mouse macrophages were used as host cell and were collected 2 days after peritoneal stimulation with a 2% potato starch suspension. All cultures and assays were conducted at 37° C. under an atmosphere of 5% CO2.
Compound Solutions/Dilutions. Compound stock solutions were prepared in 100% DMSO at 20 mM or mg/ml. Concentrations were standard and expressed in molar concentrations, except for natural products, drug mixtures and if the molecular weight was not known. […]
Drug Sensitivity Assays. […] After 5 days incubation, parasite burdens (mean number of amastigotes/macrophage) were microscopically assessed after staining the cells with a 10% Giemsa solution. The results were expressed as % reduction in parasite burden compared to untreated control wells and an IC50 (50% inhibitory concentration) was calculated. […]

Turning to `CCCCCCCCCCCCCCCCOP(=O)([O-])OCC[N+](C)(C)C` [miltefosin], the IC50 was 4.3 µM.
